Test results from patent US10143696B2, “Methods and compositions for decreasing gastric emptying” (priority 2015, dated 2018).
“Also recorded” adds a separate entry of the source. Read-outs that look alike come from different tables or passages of the source.

Legend:
Sprague-Dawley rats [1] = test: Gastric emptying of a test meal in rats; format: in vivo, rat
Procedure: (§1) Rats were fasted overnight (16-18 hours) with free access to water. The next morning, compound was administered and animals were individually housed in bedding-free cages with pre-weighed food available ad libitum and access to water for 2 hours. The water and food were then removed and the remaining food was re-weighed. Gastric emptying of the ingested meal was assessed 4 hours later. Animals were euthanized by CO2 inhalation followed by thoracotomy. The abdominal cavity was opened, the pylorus and cardia were clamped and the stomach was removed. The excised stomach was weighed and then opened along the greater curvature, rinsed with tap water, lightly dried and re-weighed. The amount of food in the stomach (grams) was estimated based on the difference between the total weight of the stomach plus its contents and the weight of the stomach after the contents were removed. The meal ingested (food intake) was determined by the difference between pre- and post-feeding weight at the end of the 2 hour period. Gastric emptying during the 4 hour experiment is represented as: Gastric emptying=[1−(gastric content/food intake)]×100. Gastric Secretion
Male, Sprague-Dawley rats (weighing between 229-264 g each and 4 rats per test group) were fasted overnight (19 hours). The rats were then orally administered 10 mg/kg, 30 mg/kg or 100 mg/kg of Compound A with a 0.5% MC or Capryol:Solutol:Polyethyleneglycol (CSP) vehicle or with a 0.5% MC or CSP vehicle alone. The rats were then placed in individual, bedding-free cages and allowed ad libitium access to pre-weighed food and water for two hours. The food and water were then removed and the food was reweighed. Gastric emptying was then assessed four hours later by euthanizing the rats and analyzing the stomach and stomach contents. […] Data are represented as the means+the standard error of the means (S.E.M). % Gastric Emptying in 4 hours=(1−(gastric content/food intake))×100. […] Data are represented as the means+S.E.M.
Male, Sprague-Dawley rats (weighing between 235-268 g each and 4-6 rats per test group) were fasted overnight (19 hours). The rats were then subcutaneously administered 10 mg/kg, 30 mg/kg or 100 mg/kg of carbamazepine (Compound B) with a 25% HPBCD vehicle or with a 25% HPBCD vehicle alone. Some test animals were not dosed (i.e., naïve). The rats were then placed in individual, bedding-free cages and allowed ad libitium access to pre-weighed food and water for two hours. The food and water were then removed and the food was reweighed. […] Data are represented as the means+S.E.M. % Gastric Emptying in 4 hours=(1−(gastric content/food intake))×100.
Male, Sprague-Dawley rats (weighing between 238-274 g each and 6 rats per test group) were fasted overnight (19 hours). The rats were then orally administered 30 mg/kg, 100 mg/kg or 300 mg/kg of carbamazepine (Compound B) with a 0.5% MC vehicle or with a 0.5% MC vehicle alone. The rats were then placed in individual, bedding-free cages and allowed ad libitium access to pre-weighed food and water for two hours. The food and water were then removed and the food was reweighed. […] Data are represented as the means+S.E.M. % Gastric Emptying in 4 hours=(1−(gastric content/food intake))×100.
Male, Sprague-Dawley rats (weighing between 235-276 g each and 4-6 rats per test group) were fasted overnight (19 hours).

[2] = format: in vivo, cynomolgus monkeys
Procedure: Compound A (10-100 mg/kg) was administered orally to cynomolgus monkeys and blood specimens were collected prior to dose administration and at target time points of 0.5, 1, 3, 5, 8, and 24 hours post-dose administration. Blood was collected via the femoral vein into tubes containing tripotassium ethylene-diamine-tetraacetic acid (K3EDTA) as the anticoagulant. Whole blood was centrifuged to obtain plasma (9000×g for 10 minutes at 4° C.) which was transferred into labeled tubes and stored at −80° C. Plasma calibration standards, blanks, and study samples were processed by protein precipitation. To a 50 μL aliquot 150 μL of a 10 ng/mL solution of an internal standard and 150 μL of acetonitrile was added. The mixture was eluted using positive pressure and analyzed by liquid chromatography/mass spectrometry/mass spectrometry with m/z transition of 462-417. Compound A concentrations were calculated using area response ratios and a regression line constructed from the concentrations and peak area response ratios of the calibration standards. […]. The lower limit of quantification (LLOQ) for the plasma method is approximately 0.5 ng/mL and the upper limit of quantification (ULOQ) is approximately 1000 ng/mL extracted from plasma using a 50-μL aliquot of sample.
As such, a pharmacokinetic and observational study was conducted in cynomologous monkeys (FIG. 16). Plasma concentrations of Compound A were measured following a single oral dose of 10, 50 and 100 mg/kg up to 24 hours post-dosing (FIGS. 16A, B and C).

Sprague-Dawley rats [3] = test: Repeated oral administration: gastric emptying, food intake, body weight; format: in vivo, rat
Procedure: as §1
Male, Sprague-Dawley rats (weighing between 240-283 g each and 5-6 rats per test group) were orally dosed with 3 mg/kg, 10 mg/kg or 30 mg/kg of Compound A with a 0.5% MC vehicle or with a 0.5% MC vehicle alone once a day for five days and were then fasted overnight. The rats were then dosed again on the sixth day and placed in individual, bedding-free cages and allowed ad libitium access to pre-weighed food and water for two hours. The food and water were then removed and the food was reweighed. Data were analyzed using a one-way ANOVA followed by a Dunnett's Multiple Comparison Test, where *P<0.05 as compared to the appropriate vehicle. Data are represented as the means+S.E.M. % Gastric Emptying in 4 hours=(1−(gastric content/food intake))×100.

[4] = naïve rats, p.o. 100 mg/kg, 0.5% MC (Example 13)
[5] = p.o. 10, 30, 100 mg/kg, 0.5% MC or CSP vehicle (Example 1)
[6] = 30 mg/kg p.o. once a day, over 5 days
[7] = p.o. 3, 10, 30 mg/kg once a day for 6 days, 0.5% MC

Compound: C[C@H](Nc1cc(C(N)=O)nc(-c2ccc(Oc3ccc(OC(F)(F)F)cc3)cc2)n1)C(N)=O [Compound A]
- % Gastric Emptying in 4 hours (Sprague-Dawley rats [1]; Compound A 3 mg/kg s.c. alone, 25% HPBCD (Examples 11, 12), 3 mg/kg): inhibits the percent of gastric emptying independently
- gastric emptying (Sprague-Dawley rats [1]; administered subcutaneously (Example 9)): decrease in gastric emptying
- gastric emptying inhibition potency of Compound A with a CSP vehicle compared to Compound D in 25% HPBCD (Sprague-Dawley rats [1]; all dosages tested): maintains a greater gastric emptying inhibition potency as compared to Compound D
- gastric emptying inhibition potency compared between compounds (Sprague-Dawley rats [1]; comparison at equal or similar dosages, routes and vehicles): greater gastric emptying inhibition potency than Compound B; also recorded: greater gastric emptying inhibition potency when compared to Compound B; also recorded: greater gastric emptying inhibition potency at lower dosages; also recorded: highest in vivo potency
- gastric emptying (Sprague-Dawley rats [1]; lowest dose tested orally, 10 mg/kg): ~0%
- % Gastric Emptying in 4 hours (Sprague-Dawley rats [1]; [4]): statistically significant decrease in gastric emptying
- stomach weight (Sprague-Dawley rats [1]; [4]): increase in stomach weight
- % Gastric Emptying in 4 hours (Sprague-Dawley rats [1]; [5]): increased inhibition of gastric emptying
- stomach weight (Sprague-Dawley rats [1]; [5]): increased stomach weight
- gastric emptying inhibition and stomach weight increase, CSP vehicle compared to 0.5% MC vehicle (Sprague-Dawley rats [1]; p.o. 10-100 mg/kg (Example 1)): greater inhibiting effect on gastric emptying and stomach weight increase was observed with a CSP vehicle
- food intake (Sprague-Dawley rats [1]; rat, in vivo): decreased food intake
- stomach weight (Sprague-Dawley rats [1]; rat, in vivo): increased stomach weight
- stomach weight and food intake (Sprague-Dawley rats [1]; rat, in vivo): comparable to that of Compound A alone
- increase in potency on gastric emptying, subcutaneous as compared to oral administration (Sprague-Dawley rats [1]; s.c. vs p.o.): 3-10 fold
- food intake (Sprague-Dawley rats [1]; vagotomized and naïve rats, p.o. 100 mg/kg (Example 13)): Food intake is inhibited
- stomach weight (Sprague-Dawley rats [1]; vagotomized rats, p.o. 100 mg/kg, 0.5% MC, vs vagotomy alone (Example 13)): not statically significantly different from vagotomy alone
- % Gastric Emptying in 4 hours (Sprague-Dawley rats [1]; vagotomized rats, p.o. 100 mg/kg, 0.5% MC, vs vagotomy alone (Example 13), 100 mg/kg): numerically additive effect on the inhibition of gastric emptying but not a statistically significant effect; also recorded: not statically significantly different from vagotomy alone
- time up to which plasma concentration continued increasing ([2]; monkey, p.o. 10 mg/kg): 8 h
- time up to which plasma concentration continued increasing ([2]; monkey, p.o. 50 mg/kg and 100 mg/kg): 24 h
- plasma levels versus dose ([2]; monkey, single oral dose of 10, 50 and 100 mg/kg): increased with increasing dose in an approximately linear fashion
- plasma concentrations ([2]; monkey, single oral dose of 10, 50 and 100 mg/kg, up to 24 hours): measurable at all doses
- plasma level of the individual monkey presenting the highest plasma levels ([2]; p.o., at 24 hrs): over 3000 ng/ml
- body weight lost as a percentage of total body weight (Sprague-Dawley rats [3]; [6]): 2.6%
- mean body weight loss (Sprague-Dawley rats [3]; [6]): 6.3 g
- body weight (Sprague-Dawley rats [3]; measured on day 5, p.o. 3, 10, 30 mg/kg once a day): decreased for all Compound A dosage levels
- % Gastric Emptying in 4 hours (Sprague-Dawley rats [3]; [7]): inhibited the percentage of gastric emptying
- food intake (Sprague-Dawley rats [3]; [7]): decrease in food intake
